PMC12013494, “Covalent inhibition of the SARS-CoV-2 NiRAN domain via an active-site cysteine” (The Journal of Biological Chemistry, 2025)

Assays:
[1] = target: T1, SARS-CoV-2 nsp12 NiRAN domain (Severe acute respiratory syndrome coronavirus 2, UniProt P0DTD1); assay: biochemical; conditions: for IC50 for NiRAN-dependent AMPylation of nsp9 / IC50: n = 4; for IC50: read-out: IC50 for NiRAN-dependent AMPylation of nsp9
[2] = target: nsp12 (Severe acute respiratory syndrome coronavirus 2, UniProt P0DTD1); type: binding, SARS-CoV-2
[3] = target: T1, SARS-CoV-2 nsp12 NiRAN domain; type: biochemical
[4] = target: SARS-CoV-2 nsp12 (Severe acute respiratory syndrome coronavirus 2, UniProt P0DTD1); type: binding
[5] = tested on: SARS-CoV-2; conditions: cited from earlier work
[6] = target: SARS-CoV-2 main protease; conditions: cited from earlier work
[7] = target: T2, Flag-nsp12 (Severe acute respiratory syndrome coronavirus 2, UniProt P0DTD1); type: cell-based, SARS-CoV-2
[8] = target: SARS-CoV-1 nsp12 (Severe acute respiratory syndrome coronavirus, UniProt P0C6X7); type: binding
[9] = target: MERS nsp12 (Middle East respiratory syndrome-related coronavirus, UniProt K9N7C7); type: binding, MERS-CoV
[10] = target: human SelO (Homo sapiens, UniProt Q9BVL4, U667C); type: binding
[11] = target: nsp12 RdRp (Severe acute respiratory syndrome coronavirus 2, UniProt P0DTD1); type: biochemical, SARS-CoV-2
[12] = target: T2, Flag-nsp12; type: cell-based, SARS-CoV-2; remark: listed apart in the source
[13] = tested on: SARS-CoV-2-Wu-1-zsGreen; assay: microbe, parasite or virus in culture; type: cell-based; conditions: for EC50: Severe acute respiratory syndrome coronavirus 2, read-out: EC50 for viral replication (infectivity)
[14] = tested on: NiRAN; conditions: cited from earlier work

Sequence of MERS nsp12 (K9N7C7 4378-5310 limits assumed): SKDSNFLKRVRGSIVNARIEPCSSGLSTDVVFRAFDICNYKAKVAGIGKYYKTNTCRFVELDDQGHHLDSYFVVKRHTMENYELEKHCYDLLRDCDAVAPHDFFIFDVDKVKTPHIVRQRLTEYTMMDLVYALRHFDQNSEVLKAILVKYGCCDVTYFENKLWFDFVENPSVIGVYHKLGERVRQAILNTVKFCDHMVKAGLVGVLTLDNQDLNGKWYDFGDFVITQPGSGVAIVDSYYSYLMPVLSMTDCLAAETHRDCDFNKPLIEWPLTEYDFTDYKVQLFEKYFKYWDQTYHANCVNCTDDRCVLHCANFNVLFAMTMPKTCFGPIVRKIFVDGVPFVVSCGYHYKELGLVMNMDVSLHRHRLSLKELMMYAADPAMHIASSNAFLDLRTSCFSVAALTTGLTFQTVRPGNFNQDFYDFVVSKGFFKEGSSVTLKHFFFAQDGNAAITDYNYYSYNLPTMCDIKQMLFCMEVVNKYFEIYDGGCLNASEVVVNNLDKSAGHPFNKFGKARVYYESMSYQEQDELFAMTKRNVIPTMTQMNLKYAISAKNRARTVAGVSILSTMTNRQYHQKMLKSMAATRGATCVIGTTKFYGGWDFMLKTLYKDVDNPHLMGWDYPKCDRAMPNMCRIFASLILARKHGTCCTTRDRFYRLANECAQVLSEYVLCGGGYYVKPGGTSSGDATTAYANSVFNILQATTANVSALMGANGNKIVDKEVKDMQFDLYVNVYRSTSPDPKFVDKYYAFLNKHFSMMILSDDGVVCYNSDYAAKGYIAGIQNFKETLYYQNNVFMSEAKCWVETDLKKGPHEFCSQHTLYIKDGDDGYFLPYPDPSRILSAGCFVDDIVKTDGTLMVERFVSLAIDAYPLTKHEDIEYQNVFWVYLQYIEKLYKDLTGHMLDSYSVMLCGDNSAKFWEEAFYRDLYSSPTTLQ
Sequence of human SelO (Q9BVL4 with tags, fused parts or gaps U667C limits assumed): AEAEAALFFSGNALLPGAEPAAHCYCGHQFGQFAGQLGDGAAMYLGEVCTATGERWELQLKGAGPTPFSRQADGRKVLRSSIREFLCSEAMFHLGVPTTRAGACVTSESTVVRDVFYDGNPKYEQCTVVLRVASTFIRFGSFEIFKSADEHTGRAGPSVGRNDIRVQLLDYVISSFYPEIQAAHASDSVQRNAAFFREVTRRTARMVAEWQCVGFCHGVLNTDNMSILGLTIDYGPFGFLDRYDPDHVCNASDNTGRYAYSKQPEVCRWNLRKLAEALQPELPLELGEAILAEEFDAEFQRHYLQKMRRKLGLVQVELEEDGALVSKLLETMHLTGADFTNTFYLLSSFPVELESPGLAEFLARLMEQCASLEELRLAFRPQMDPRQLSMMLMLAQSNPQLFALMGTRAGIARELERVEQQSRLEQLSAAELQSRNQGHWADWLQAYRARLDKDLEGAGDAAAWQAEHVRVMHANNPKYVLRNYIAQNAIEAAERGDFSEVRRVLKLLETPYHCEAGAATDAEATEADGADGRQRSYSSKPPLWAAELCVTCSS

Q: For COC(=O)c1cnn2c(O)cc(C(C)Cl)nc12 (stereo not shown) [SW396272-1, Methyl 5-(1-chloroethyl)-7-hydroxypyrazolo[1,5-a]pyrimidine-3-carboxylate], which “IC50 for NiRAN-dependent AMPylation of nsp9” value (shortened to “IC50 … of nsp9”) [1] is on record?
A: No activity up to 500 μM

Q: For COC(=O)c1cnn2c(O)cc(/C=C/C(=O)O)nc12 [SW396066-1, (E)-3-(7-hydroxy-3-(methoxycarbonyl)pyrazolo[1,5-a]pyrimidin-5-yl)acrylic acid], which “IC50 … of nsp9” value [1] is on record?
A: No activity up to 500 μM

Q: Which “IC50 … of nsp9” value [1] does the source give for COC(=O)c1cnn2c(O)cc(/C=C/C(=O)OC(C)(C)C)nc12 [SW396065-1, Methyl (E)-5-(3-(tert-butoxy)-3-oxoprop-1-en-1-yl)-7-hydroxypyrazolo[1,5-a]pyrimidine-3-carboxylate] here?
A: No activity up to 500 μM

Q: What does the source list for O=c1cc(CCl)nc2ccc(Cl)cn12 [NCI-1]?
A: IC50 [1]: 7.32 µM; effect on thermal stability of nsp12 [2]: increase in the thermal stability of nsp12; inhibition of NiRAN-dependent RNAylation of nsp9 [3]: inhibition of NiRAN-dependent RNAylation of nsp9; covalent binding to nsp12 (intact mass shift) [4]: covalent addition

Q: What does the source list for CC(C)(C)[C@H](NC(=O)C(F)(F)F)C(=O)N1C[C@H]2[C@@H]([C@H]1C(=O)N[C@H](C#N)C[C@@H]1CCNC1=O)C2(C)C [nirmatrelvir]?
A: EC50 [5]: 0.075 µM; Ki [6]: 0.003 µM

Q: For COC(=O)c1cnn2c(O)cc(CCCl)nc12 [SW398309-1, Methyl 5-(2-chloroethyl)-7-hydroxypyrazolo[1,5-a]pyrimidine-3-carboxylate], which “IC50 … of nsp9” value [1] is on record?
A: No activity up to 500 μM

Q: For C#CCNc1cc(CCl)nc2c(C(=O)OC)cnn12 [SW395929-1, Methyl 5-(chloromethyl)-7-(prop-2-yn-1-ylamino)pyrazolo[1,5-a]pyrimidine-3-carboxylate], which “IC50 … of nsp9” value [1] is on record?
A: No activity up to 500 μM

Q: Which “IC50 … of nsp9” value [1] does the source give for O=C(O)c1cnn2c(O)cc(CCl)nc12 [SW396061-1, 5-(Chloromethyl)-7-hydroxypyrazolo[1,5-a]pyrimidine-3-carboxylic acid] here?
A: No activity up to 500 μM

Q: Which “IC50 … of nsp9” value [1] does the source give for COC(=O)c1cnn2c(O)cc(Cl)nc12 [SW461448-1] here?
A: No activity up to 500 μM

Q: For C#Cc1cc(O)n2ncc(C(=O)OC)c2n1 [SW461447-1, Methyl 5-ethynyl-7-hydroxypyrazolo[1,5-a]pyrimidine-3-carboxylate], which “IC50 … of nsp9” value [1] is on record?
A: No activity up to 500 μM

Q: With C#CCOC(=O)c1cnn2c(O)cc(CCl)nc12 [NCI-3, Prop-2-yn-1-yl 5-(chloromethyl)-7-hydroxypyrazolo[1,5-a]pyrimidine-3-carboxylate] as the molecule, how does the IC50 [1] read?
A: 10.4 µM

Q: What about the “binding to nsp12 in cells (biotinylation after click reaction)” value [7] of the same molecule?
A: major biotinylated species corresponding to nsp12

Q: Which “IC50 … of nsp9” value [1] does the source give for COC(=O)c1cnn2c(O)cc(/C=C/C(N)=O)nc12 [SW396067-1, Methyl (E)-5-(3-amino-3-oxoprop-1-en-1-yl)-7-hydroxypyrazolo[1,5-a]pyrimidine-3-carboxylate] here?
A: No activity up to 500 μM

Q: With C#CCNC(=O)c1cnn2c(O)cc(CCl)nc12 [SW396062-1, 5-(Chloromethyl)-7-hydroxy-N-(prop-2-yn-1-yl)pyrazolo[1,5-a]pyrimidine-3-carboxamide] as the molecule, how does the IC50 [1] read?
A: > 500 µM

Q: For COC(=O)c1cn(C)n2c(=O)cc(CCl)nc12 [SW396262-1, Methyl 5-(chloromethyl)-1-methyl-7-oxo-1,7-dihydropyrazolo[1,5-a]pyrimidine-3-carboxylate], which IC50 [1] is on record?
A: > 500 µM

Q: Which results are given for COC(=O)c1cnn2c(O)cc(CCl)nc12 [NCI-2, methyl 5-(chloromethyl)-7-hydroxypyrazolo[1,5-a]pyrimidine-3-carboxylate]?
A: Ki [1]: 16.3 µM; IC50 [1]: 4.36 µM; kinact ([1]; read-out: rate of inactivation constant kinact): 0.0024 s⁻¹; kinact/KI ([1]; read-out: second order rate constant kinact/Ki): 147 M⁻¹ s⁻¹; effect on thermal stability of nsp12 [2]: increase in the thermal stability of nsp12; inhibition of NiRAN-dependent RNAylation of nsp9 [3]: inhibition of NiRAN-dependent RNAylation of nsp9; covalent binding to nsp12 (intact mass shift) [4]: covalent addition; covalent binding to SARS-CoV-1 nsp12 [8]: covalently binds; binding to MERS NiRAN (nsp12) [9]: fails to bind; binding to SelO [10]: fails to bind; effect on nsp12 polymerase (RdRp) activity [11]: did not impact nsp12 polymerase activity; RNAylation activity of Flag-nsp12 from treated cells [12]: marked reduction in its ability to RNAylate nsp9; concentration at which inhibition of viral replication was observed [13]: 200 µM; EC50 [13]: > 200 µM

Q: Which “IC50 … of nsp9” value [1] does the source give for COC(=O)c1cnn2c(O)cc(CCO)nc12 [SW398310-1, Methyl 7-hydroxy-5-(2-hydroxyethyl)pyrazolo[1,5-a]pyrimidine-3-carboxylate] here?
A: No activity up to 500 μM

Q: With CCC(CC)COC(=O)[C@H](C)N[P@](=O)(OC[C@H]1O[C@@](C#N)(c2ccc3c(N)ncnn23)[C@H](O)[C@@H]1O)Oc1ccccc1 [remdesivir, reference compound] as the molecule, how does the EC50 [13] read?
A: 0.64 µM

Q: What about the “inhibition of NiRAN activity” value [14] of the same molecule?
A: inhibit NiRAN activity

Q: With COC(=O)c1cnn2c(O)cc(C=O)nc12 [SW396064-1, Methyl 5-formyl-7-hydroxypyrazolo[1,5-a]pyrimidine-3-carboxylate] as the molecule, how does the “IC50 … of nsp9” value [1] read?
A: No activity up to 500 μM

Q: Which IC50 [1] does the source give for COC(=O)c1cnn2c(OC)cc(CCl)nc12 [SW396271-1, Methyl 5-(chloromethyl)-7-methoxypyrazolo[1,5-a]pyrimidine-3-carboxylate] here?
A: > 500 µM

Q: With COC(=O)c1cnn2c(O)cc(CO)nc12 [SW396063-1, Methyl 7-hydroxy-5-(hydroxymethyl)pyrazolo[1,5-a]pyrimidine-3-carboxylate] as the molecule, how does the IC50 [1] read?
A: 371 µM

Q: For COC(=O)c1cnn2c(O)cc(C#N)nc12 [SW396744-1, Methyl 5-cyano-7-hydroxypyrazolo[1,5-a]pyrimidine-3-carboxylate], which “IC50 … of nsp9” value [1] is on record?
A: No activity up to 500 μM
